Patent US8877681B2, “Use of specific alcohol alkoxylates as an adjuvant for agrotechnical applications” (BASF SE, priority 2002, dated 2014)

How the values were obtained:
[1] = tested on: white goosefoot (Chenepodium album; CHEAL); experiment: Greenhouse herbicidal efficacy test, tank mix of herbicide and adjuvant, post-emergence spray; format: in vivo; conditions: 0% no damage, 100% complete damage
Procedure: (§1) The alkoxylates were applied by the tank mix method together with Basagran (480 g/l bentazone) or BAS 635 H (71.4% by weight of tritosulfuron). […] The herbicidal effect was assessed in a greenhouse experiment. The test plant used was white goosefoot (Chenepodium album; CHEAL) and the common morningglory (Pharbitis album; PHAAL).
(§2) The plants were sown directly or pricked out at a rate of 3-15 plants per pot. When the active ingredient was applied, the plants were 5-16 cm in height. The test containers used were plastic pots containing loamy sand and approximately 3% humus as substrate. The surfactants were applied by the tank mix method by spray application post-emergence in an automated spray cabinet with a water application rate of 400 liters per hectare. The experimental period was 6 days to 4 weeks. Evaluation was carried out using a scale of from 0% to 100%. 0% means no damage, 100% means complete damage.

[2] = tested on: common morningglory (Pharbitis album; PHAAL); experiment: as above; format: in vivo; conditions: Tritosulfuron (BAS 635 H) 0.250 kg/ha as printed in table + adjuvant 0.125 kg/ha (Comparison 0.250 kg/ha), 0% no damage, 100% complete damage
Procedure: as §1, §2

SMILES	CHEAL herbicidal effect (damage, scale 0% to 100%) ([1]; Bentazone (Basagran) 0.250 kg/ha + adjuvant 0.125 kg/ha (Comparison 0.250 kg/ha), 400 l/ha water) [%]	PHAAL herbicidal effect (damage, scale 0% to 100%) [2] [%]	CHEAL herbicidal effect (damage, scale 0% to 100%) ([1]; Tritosulfuron (BAS 635 H) 0.250 kg/ha as printed in table + adjuvant 0.125 kg/ha (Comparison 0.250 kg/ha)) [%]
CC(C)N1C(=O)c2ccccc2NS1(=O)=O [Bentazone, bentazone]	23	–	–
COc1nc(NC(=O)NS(=O)(=O)c2ccccc2C(F)(F)F)nc(C(F)(F)F)n1 [Tritosulfuron, tritosulfuron]	–	48	35
